From the NIST ThermoML archive (doi:10.1016/j.jct.2016.09.015)
± gives the expanded uncertainty stated by the source.

Tests used:
[1] = Molar enthalpy of transition or fusion; details: Crystal; DSC
[2] = Crystal; DTA

Molar enthalpy of transition or fusion [1]: 7.44 ± 0.526 kcal/mol
Normal melting temperature [2]: 168.68 ± 0.46 °C
SMILES: C[C@@H]1O[C@@H](OC[C@H]2O[C@@H](Oc3c(-c4ccc(OCCO)c(OCCO)c4)oc4cc(OCCO)cc(O)c4c3=O)[C@H](O)[C@@H](O)[C@@H]2O)[C@H](O)[C@H](O)[C@H]1O [Troxerutin]
